# According to patent US20230133672A1, “FUSION POLYPEPTIDE COMPRISING GDF15 AND POLYPEPTIDE REGION CAPABLE OF O-GLYCOSYLATION” (LG CHEM, LTD., priority 2019, published 2023):
# Assays:
# [1] = Repeated administration: feed intake in DIO mice; format: in vivo, Mouse, C57BL/6J-DIO; set-up: unit not given here
# Method: (§1) In addition, after administering the test substances into mice, the daily feed intake was measured, and the feeding amount was measured using an electronic scale for each breeding box, and the remaining amount was measured to calculate the daily feed intake. In case of an individual that gnawed heavily on heed, it was excluded from the measurement.
# (§2) All the experimental results obtained in the present example were expressed as mean±standard error and tested using Prism5 (version 5.01). One-way analysis of variance (ANOVA) was performed on all data, and when significance was observed, Dunnett's test was performed to find out the test groups with a significant difference from the control group (significance level: two-sided 5% and 1%, 0.1%).
# Except for the administration dose, animal number and administration cycle, most of the test processes were the same as in Example 2.1.1 above.
# The test substances were administered twice a week (Days 0, 4, 7, 11, 14, 18, 21, 25) for a total of 8 times. For comparison, the control group in which the control substance Semaglutide was administered every day was prepared, and the comparison group in which Semaglutide was administered every day was administered once a day daily, and all the administration was progressed from 9 AM.
# [2] = Single administration: feed intake in DIO mice; format: in vivo, Mouse, C57BL/6J-DIO; set-up: unit not given here
# Method: The pharmacological effect of the fusion polypeptides produced and purified in Example 1 above was tested in mice (C57BL/6J, 6-week-old, male, 100 mice; Raonbio).
# In the present example, DI0 mouse model (Mouse, C57BL/6J-DIO, male, 100 mice, 14-week-old (obesity feed feeding for 8 weeks)) in which obesity was induced by feeding a high-fat diet into the C57BL/6J mice for 8 weeks was used.
# The administration of the test substances HT-ID1-GDF15, HT-ID2-GDF15, and HT-ID3-GDF15 and the control substance Semaglutide (Bachem) was conducted from the next day after group separation, and the administration time was performed at 9 AM every day. Subcutaneous administration was conducted for all the control substance and test substances. For the administration route of the control substance and test substances, subcutaneous administration was selected depending on the clinically scheduled administration route.
# For all the control substance and test substances, the amount of the administration solution was set to 5 mL/kg and the administration liquid by individual was calculated on the basis of the recently measured body weight and it was administered by subcutaneous injection once on the start day of the test using a disposable syringe (1 mL). The test substances were administered only once. For comparison, the control group in which the control substance Semaglutide was administered was prepared, and the comparison group in which Semaglutide was administered was administered once a day, and all the administration was progressed from 9 AM.
# as §1, §2
substance,measurement,setting,value
"HT-ID3-GDF15: Fusion polypeptide: His-Tag, TEV cleavage site, three IgD hinges, GS linker, GDF15 (SEQ ID NO: 3)","Feed intake, Mean","[1]; Day 1, 3 nmol/kg twice a week",2.9
same,"Feed intake, Mean","[1]; Day 1, 10 nmol/kg twice a week",2.9
same,"Feed intake, Mean","[1]; Day 1, 30 nmol/kg twice a week",2.5
same,"Feed intake, Mean","[1]; Day 2, 3 nmol/kg twice a week",1.5
same,"Feed intake, Mean","[1]; Day 2, 10 nmol/kg twice a week",1.7
same,"Feed intake, Mean","[1]; Day 2, 30 nmol/kg twice a week",1.6
same,"Feed intake, Mean","[1]; Day 3, 3 nmol/kg twice a week",1.9
same,"Feed intake, Mean","[1]; Day 3, 10 nmol/kg twice a week",2.3
same,"Feed intake, Mean","[1]; Day 3, 30 nmol/kg twice a week",2.1
same,"Feed intake, Mean","[1]; Day 4, 3 nmol/kg twice a week",1.9
same,"Feed intake, Mean","[1]; Day 4, 10 nmol/kg twice a week",2.2
same,"Feed intake, Mean","[1]; Day 4, 30 nmol/kg twice a week",2.2
same,"Feed intake, Mean","[1]; Day 5, 3 nmol/kg twice a week",2.0
same,"Feed intake, Mean","[1]; Day 5, 10 nmol/kg twice a week",2.1
same,"Feed intake, Mean","[1]; Day 5, 30 nmol/kg twice a week",2.3
same,"Feed intake, Mean","[1]; Day 6, 3 nmol/kg twice a week",1.6
same,"Feed intake, Mean","[1]; Day 6, 10 nmol/kg twice a week",1.9
same,"Feed intake, Mean","[1]; Day 6, 30 nmol/kg twice a week",1.8
same,"Feed intake, Mean","[1]; Day 7, 3 nmol/kg twice a week",2.1
same,"Feed intake, Mean","[1]; Day 7, 10 nmol/kg twice a week",2.2
same,"Feed intake, Mean","[1]; Day 7, 30 nmol/kg twice a week",2.2
same,"Feed intake, Mean","[1]; Day 8, 3 nmol/kg twice a week",2.1
same,"Feed intake, Mean","[1]; Day 8, 10 nmol/kg twice a week",2.1
same,"Feed intake, Mean","[1]; Day 8, 30 nmol/kg twice a week",2.1
same,"Feed intake, Mean","[1]; Day 9, 3 nmol/kg twice a week",1.9
same,"Feed intake, Mean","[1]; Day 9, 10 nmol/kg twice a week",2.1
same,"Feed intake, Mean","[1]; Day 9, 30 nmol/kg twice a week",2.0
same,"Feed intake, Mean","[1]; Day 10, 3 nmol/kg twice a week",2.4
same,"Feed intake, Mean","[1]; Day 10, 10 nmol/kg twice a week",2.4
same,"Feed intake, Mean","[1]; Day 10, 30 nmol/kg twice a week",2.5
same,"Feed intake, Mean","[1]; Day 11, 3 nmol/kg twice a week",2.5
same,"Feed intake, Mean","[1]; Day 11, 10 nmol/kg twice a week",3.0
same,"Feed intake, Mean","[1]; Day 11, 30 nmol/kg twice a week",2.9
same,"Feed intake, Mean","[1]; Day 12, 3 nmol/kg twice a week",3.9
same,"Feed intake, Mean","[1]; Day 12, 10 nmol/kg twice a week",4.1
same,"Feed intake, Mean","[1]; Day 12, 30 nmol/kg twice a week",4.0
same,"Feed intake, Mean","[1]; Day 13, 3 nmol/kg twice a week",2.9
same,"Feed intake, Mean","[1]; Day 13, 10 nmol/kg twice a week",2.5
same,"Feed intake, Mean","[1]; Day 13, 30 nmol/kg twice a week",2.1
same,"Feed intake, Mean","[1]; Day 14, 3 nmol/kg twice a week",3.2
same,"Feed intake, Mean","[1]; Day 14, 10 nmol/kg twice a week",3.3
same,"Feed intake, Mean","[1]; Day 14, 30 nmol/kg twice a week",3.0
same,"Feed intake, Mean","[1]; Day 15, 3 nmol/kg twice a week",3.1
same,"Feed intake, Mean","[1]; Day 15, 10 nmol/kg twice a week",3.2
same,"Feed intake, Mean","[1]; Day 15, 30 nmol/kg twice a week",3.1
same,"Feed intake, Mean","[1]; Day 16, 3 nmol/kg twice a week",2.7
same,"Feed intake, Mean","[1]; Day 16, 10 nmol/kg twice a week",2.2
same,"Feed intake, Mean","[1]; Day 16, 30 nmol/kg twice a week",1.9
same,"Feed intake, Mean","[1]; Day 17, 3 nmol/kg twice a week",3.0
same,"Feed intake, Mean","[1]; Day 17, 10 nmol/kg twice a week",3.3
same,"Feed intake, Mean","[1]; Day 17, 30 nmol/kg twice a week",3.0
same,"Feed intake, Mean","[1]; Day 18, 3 nmol/kg twice a week",3.1
same,"Feed intake, Mean","[1]; Day 18, 10 nmol/kg twice a week",3.3
same,"Feed intake, Mean","[1]; Day 18, 30 nmol/kg twice a week",3.2
same,"Feed intake, Mean","[1]; Day 19, 3 nmol/kg twice a week",3.3
same,"Feed intake, Mean","[1]; Day 19, 10 nmol/kg twice a week",3.4
same,"Feed intake, Mean","[1]; Day 19, 30 nmol/kg twice a week",3.3
same,"Feed intake, Mean","[1]; Day 20, 3 nmol/kg twice a week",2.7
same,"Feed intake, Mean","[1]; Day 20, 10 nmol/kg twice a week",2.4
same,"Feed intake, Mean","[1]; Day 20, 30 nmol/kg twice a week",1.9
same,"Feed intake, Mean","[1]; Day 21, 3 nmol/kg twice a week",3.0
same,"Feed intake, Mean","[1]; Day 21, 10 nmol/kg twice a week",3.1
same,"Feed intake, Mean","[1]; Day 21, 30 nmol/kg twice a week",3.1
same,"Feed intake, Mean","[1]; Day 22, 3 nmol/kg twice a week",3.1
same,"Feed intake, Mean","[1]; Day 22, 10 nmol/kg twice a week",3.2
same,"Feed intake, Mean","[1]; Day 22, 30 nmol/kg twice a week",3.4
same,"Feed intake, Mean","[1]; Day 23, 3 nmol/kg twice a week",2.9
same,"Feed intake, Mean","[1]; Day 23, 10 nmol/kg twice a week",2.7
same,"Feed intake, Mean","[1]; Day 23, 30 nmol/kg twice a week",2.3
same,"Feed intake, Mean","[1]; Day 24, 3 nmol/kg twice a week",3.1
same,"Feed intake, Mean","[1]; Day 24, 10 nmol/kg twice a week",3.1
same,"Feed intake, Mean","[1]; Day 24, 30 nmol/kg twice a week",3.3
same,"Feed intake, Mean","[1]; Day 25, 3 nmol/kg twice a week",2.9
same,"Feed intake, Mean","[1]; Day 25, 10 nmol/kg twice a week",3.3
same,"Feed intake, Mean","[1]; Day 25, 30 nmol/kg twice a week",3.2
same,"Feed intake, Mean","[1]; Day 26, 3 nmol/kg twice a week",3.0
same,"Feed intake, Mean","[1]; Day 26, 10 nmol/kg twice a week",3.3
same,"Feed intake, Mean","[1]; Day 26, 30 nmol/kg twice a week",3.2
same,"Feed intake, Mean","[1]; Day 27, 3 nmol/kg twice a week",2.8
same,"Feed intake, Mean","[1]; Day 27, 10 nmol/kg twice a week",2.7
same,"Feed intake, Mean","[1]; Day 27, 30 nmol/kg twice a week",2.2
same,"Feed intake, Mean","[1]; Day 28, 3 nmol/kg twice a week",2.7
same,"Feed intake, Mean","[1]; Day 28, 10 nmol/kg twice a week",3.2
same,"Feed intake, Mean","[1]; Day 28, 30 nmol/kg twice a week",3.2
same,"Feed intake, Mean","[2]; Day 0, 10 nmol/kg Single Inj.",3.2
same,"Feed intake, Mean","[2]; Day 1, 10 nmol/kg Single Inj.",2.0
same,"Feed intake, Mean","[2]; Day 2, 10 nmol/kg Single Inj.",2.5
same,"Feed intake, Mean","[2]; Day 3, 10 nmol/kg Single Inj.",2.3
same,"Feed intake, Mean","[2]; Day 4, 10 nmol/kg Single Inj.",2.3
same,"Feed intake, Mean","[2]; Day 5, 10 nmol/kg Single Inj.",2.7
same,"Feed intake, Mean","[2]; Day 6, 10 nmol/kg Single Inj.",2.8
same,"Feed intake, Mean","[2]; Day 7, 10 nmol/kg Single Inj.",3.3
same,"Feed intake, Mean","[2]; Day 8, 10 nmol/kg Single Inj.",3.3
same,"Feed intake, Mean","[2]; Day 9, 10 nmol/kg Single Inj.",3.6
